The text below walks through data of patent publication EP0110955B1, “BRAIN-SPECIFIC DRUG DELIVERY” (UNIVERSITY OF FLORIDA, priority 1982, dated 1983).

Each structure is given as a SMILES string.

A short description of data set [1]: Chemical oxidation by hydrogen peroxide and silver nitrate. The class given is physicochemical. The conditions noted are these: H2O2 or alcoholic AgNO3 solution. The method, then: The stability of the 1,4-dihydropyridine derivatives (5) was determined in the presence of the oxidizing agents, alcoholic AgN03 and hydrogen peroxide. The in vitro rates of oxidation of the 1,4-dihydropyridine derivative (5c) in 80% plasma, 20% brain homogenate, 20% liver homogenate and in whole blood were determined.
To 10 ml of 30% H202 was added 0.2 g of the dihydropyridine derivative (products of Examples 5 or 8). The mixture was stirred and samples were taken to check the UV spectrum.
To 5 ml of saturated methanolic AgN03 solution was added 1 ml of 5% methanolic solution of the dihydropyridine derivative. The mixture was shaken and left for 5 min for complete precipitation of silver, centrifuged and an aliquot was taken to check the UV spectrum. Complete oxidation to the quaternary salts was observed.

In a further data set the test system is serum prolactin. The experiment in a line: In vivo effect on pituitary prolactin secretion (17-β-estradiol primed male rats). Particulars: Intravenous administration, 1 mg/kg dose level. The source says:
Adult male rats (Charles Rivers, CD-1) weighing 200 to 225 g were provided food and water ad libitum for at least one week period to experimentation. To elevate serum prolactin levels, each rat received a single s.c. implant of a Silastic tube (1.57 mm interior diameter, 5 mm x 3.15 mm overall size) packed with crystalline 17-,8-estradiol. Two days later the rats were lightly anesthetized with ether and a small incision was made over the right jugular vein for intravenous (LV.) administration of the test drugs. Compound 6a was injected at a dose of 1 mg/kg body weight/ml saline and groups of six rats were decapitated at 15, 30, 60 and 120 min later to collect blood samples. Control rats (time 0) received an I.V. injection of the saline vehicle and were decapitated 30 min later. Compound 5c was dissolved in 10% ethanol in saline and was injected IV. Rats were decapitated at 15, 30 and 120 min later. Control (time 0) animals received the 10% ethanol vehicle and were sampled 30 min later.
Trunk blood was collected, allowed to clot for 2h and the serum was separated and stored at -20 ° C for subsequent assay for prolactin concentrations. Each serum sample was assayed in duplicate by the doubleantibody radioimmunoassay procedure described by the National Pituitary Agency Hormone Distribution Program. Serum prolactin concentrations are expressed in terms of the PRL-RP-2 reference preparation provided. The intraassay coefficient of variation for 10 replicate samples of pooled serum obtained from male rats was 13.8%.
The effects of compounds 5c and 6a on serum prolactin concentrations were evaluated by one-way analysis of variance and Student-Newman Keuls tests. A probability level of less than 0.05 was selected for significance. See FIGURE 7 and the discussion thereof hereinabove.

On to `CN1C=CCC(C(=O)NCCc2ccc(OC(=O)C(C)(C)C)c(OC(=O)C(C)(C)C)c2)=C1` [5c, 1-Methyl-3-(N-[β-(3,4-dipivalyloxyphenyl)-ethyl]}carbamoyl-1,4-dihydropyridine], for which, in data set [1], the “oxidation to the corresponding quaternary salt 6c” value is “quantitatively oxidized”. For the same compound, the “time through which the reduction of serum prolactin was maintained” value in the data set with serum prolactin is reported as not below 120 min. Moreover, the “decrease in serum prolactin concentrations” value with serum prolactin (male rats exposed to 17-β-estradiol) is 79%.
